According to patent publication EP1300145A1, “THERAPEUTIC OR […] FOR MOOD DISORDERS OR ANXIETY DISORDERS” (TORAY INDUSTRIES, INC., priority 2000, dated 2002):

Columns and labels:
[1] = system: male SD rats; assay: elevated plus-maze test in rats (antianxiety effect); assay type: in vivo; conditions: subcutaneous; for Time spent on open arms: 30 minutes after administration, 3 minute test, Saline,s.c. 19.1 ± 6.3; for antianxiety effect: overall statement in words
Source text: (§1) The isoquinoline derivative represented by formula (I) has a marked effect in the forced swim test, which is the animal model for mood disorder, and in the elevated plus-maze test, which is the animal model for anxiety disorder. Thus, the isoquinoline derivative can be used as a drug for curing or preventing mood disorder or anxiety disorder of mammal and, in particular, human beings. It may also be used in manufacturing of a medicament for curing or preventing mood disorder or anxiety disorder. The evaluation using the above-described animal models can be conducted by a method described in published references [Nature vol. 266, 730 (1977) or Jpn. J. Psychopharmacol vol. 15, 125 (1995)], but the method is not limited to this.
The experiment was conducted on male SD rats. In the elevated plus-maze test, the elevated plus-maze (manufactured by NeuroScience, Inc.) consisting of closed arms and open arms was used. In the experiment, a rat was placed on an open arm 30 minutes after the drug administration (subcutaneous administration), and the number of entries to the open and closed arms and the time spent in the open arms were measured. The test was conducted for 3 minutes. The rat was assumed to have made entries when all four legs have entered the arm. The ratio of the time spent in the open arms and the ratio of the entries to the open arms were calculated according to the following equations: Ratio of the time spent in the open arms (%) = {(time spent in the open arms)/(total time)} × 100 [formula] Ratio of the entries to the open arms (%) = {(number of entries to the open arms)/(total number of entries)} × 100 [formula]
The vertical axis on the left indicates the ratio of the time spent in the open arms (%) and the ratio of the entries to the open arms (%). The vertical axis on the right indicates the total number of entries. The horizontal axis indicates a control group and treatment groups. Open columns indicate the ratio of the time spent in the open arms (%) and hatched columns indicate the ratio of the entries to the open arms (%). Closed circles indicate the total number of entries. All data are indicated by average ±standard error. In a significance test, the difference was assumed to be significant at a significance level of 5% or less by Dunnett's multiple comparison. In the test, the drug is assumed to have an antianxiety effect when there are an increase in time spent on open arms and an increase in ratio of entries to open arms under administration.
The antianxiety effect of Compounds 3, 5, and 6 was assessed as in Example 1. […]

[2] = system: male ICR mice; assay: forced swim test in mice (antidepressant effect); assay type: in vivo; conditions: for Immobility time: Saline,s.c. 136.3 ± 11.4; for antidepressant effect: subcutaneous, overall statement in words
Source text: as §1
In the experiment, male ICR mice were used. In the forced swim test, the tank for forced swim used was a transparent cylindrical tank made of plastic (inner diameter: 10 cm, height: 30 cm), and water at 25°C was contained up to 14 cm in height. A mouse was placed in water, and its swimming time during 2 to 6 minutes after placement was measured. The drug was subcutaneously administered 30 minutes before testing. The vertical axis indicates the swimming time (sec) during the measurement time (4 min). The open column indicates a saline-treated group and the hatched columns indicate Compound 1 treatment groups. All data are indicated by average ±standard error. In a significance test, the difference was assumed to be significant at a significance level of 5% or less by Dunnett's multiple comparison. In the test, the drug is assumed to have an antidepressant effect when there is an increase in swimming time under administration.
The antidepressant effect of Compound 3, 5, and 6 was assessed as in Example 3. […]

[3] = 30 mg/kg, subcutaneous 30 minutes before testing
[4] = Fig. 1, compared with the control group (saline-treated group), Dunnett's multiple comparison

Compound	Time spent on open arms ([1]; 30 mg/kg) [s]	antianxiety effect [1]	Immobility time [2, 3] [s]	antidepressant effect [2]	Time spent on open arms ([1]; 10 mg/kg) [s]	Immobility time ([2]; 10 mg/kg, subcutaneous 30 minutes before testing) [s]	ratio of the entries to open arms [1, 4]	time spent in open arms [1, 4]	swimming time ([2]; subcutaneous 30 minutes before testing, 2 to 6 minutes after placement, Fig. 2, compared with the control group (saline-treated group))
Cc1c2c(nc3ccccc13)C[C@@]1(c3cccc(O)c3)CCN(C)C[C@@H]1C2 (relative stereo) [Compound 3, 2-methyl-4aα-(3-hydroxyphenyl)-11-methyl-1,2,3,4,4a,5,12,12aβ-octahydro-quinolino[2,3-g]isoquinoline]	36.6 ± 13.2	significant antianxiety effects	75.4 ± 11.6	significant antidepressant effect	–	–	–	–	–
CN1CC[C@]2(c3cccc(O)c3)Cc3nc4ccccc4c(N)c3C[C@H]2C1 (relative stereo) [Compound 5, 2-methyl-4aα-(3-hydroxyphenyl)-11-amino-1,2,3,4,4a,5,12,12aβ-octahydro-quinolino[2,3-g]isoquinoline]	–	significant antianxiety effects	–	significant antidepressant effect	25.4 ± 10.2	94.3 ± 13	–	–	–
Oc1cccc([C@]23CCN(CCc4ccccc4)C[C@@H]2Cc2cc4ccccc4nc2C3)c1 (relative stereo) [Compound 6, 2-phenethyl-4aα-(3-hydroxyphenyl)-1,2,3,4,4a,5,12,12aβ-octahydro-quinolino [2,3-g]isoquinoline]	37.9 ± 4.4	significant antianxiety effects	58.7 ± 9.1	significant antidepressant effect	–	–	–	–	–
CN1CC[C@]2(c3cccc(O)c3)Cc3nc4ccccc4cc3C[C@@H]2C1 [Compound 1, (4aS,12aS)-2-methyl-4a-(3-hydroxyphenyl)-1,2,3,4,4a,5,12,12a-octahydroquinolino[2,3-g]isoquinoline]	–	confirmed to have an antianxiety effect	–	confirmed to have an antidepressant effect	–	–	dose-dependent significant increase	dose-dependent significant increase	dose-dependent significant increase
